The nature of one data set: in vitro. Particulars: human, hela cells, % viability.
In the case of `COc1ccccc1CN(CC(C)(C)CN)C(=O)Nc1ccc(C)c([N+](=O)[O-])c1` [CBK026816C], the viability at 28.5 h, 10 µM is 98.8%.
The same measure, in the same setting: under `Cc1cnc(CNC(=O)N2CCN(c3cc(C(F)(F)F)ccn3)CC2)cn1` [CBK162320] stands 107%; under `O=C(O)c1cn(C2CC2)c2cc(N3CCN(C(=S)Nc4ccc5c(c4)OCCO5)CC3)c(F)cc2c1=O` [CBK268916], 90.9%.
Same read-out and setting: the same measure for `CN1CCN(C(=O)CN(C)S(=O)(=O)c2ccc3ccccc3c2)CC1` [CBK267053]: 96.4%.
The same measure, in the same setting: under `O=[N+]([O-])c1nn(-c2ccccc2)[n+]([O-])c1Nc1ccc(Br)cc1` [CBK268504] stands 98.7%; under `COc1cc(/C=N/NC(=O)c2nonc2N)ccc1OC(=O)c1cc(F)c(F)cc1Cl` [CBK262380], 90.1%.
As to `N#Cc1ccccc1N1CCN(c2cncc(-c3ccc(F)cc3F)n2)CC1` [CBK065708], the viability at 28.5 h, 10 µM was determined as 102%.
As to `Cc1ccc(NC(=O)Cc2ccncc2)c(C)n1` [CBK200385], the viability at 28.5 h, 10 µM came out at 90%.
Turning to `CCC(NS(=O)(=O)c1cnc2c(c1)c(C)nn2C)C(O)C(F)(F)F` (centres unmarked) [CBK306264], the viability at 28.5 h, 10 µM turned out to be 86.5%.
Still for that read-out and setting: the same measure for `CC1CCN(CC(O)c2ccc3c(c2)CCCN3C(=O)C2CC2)CC1` (centres unmarked) [CBK282488]: 96.9%; for `NS(=O)(=O)c1ccc(NC(=O)c2cc([N+](=O)[O-])ccc2N2CCOCC2)cc1` [CBK268972]: 101%.
On the same count and under the same terms, the same measure for `CC(Oc1ccc(-c2ccccc2)cc1)C(=O)Nc1ccc2c(c1)OCCO2` (centres unmarked) [CBK268002]: 92.3%; for `O=C(NC(c1ccccc1)c1cccnc1)C1CCN(C(=O)NCCc2cccs2)CC1` (centres unmarked) [CBK060313]: 78.3%; for `Cn1nc(-c2cccs2)cc1[C@H]1CN2CC[C@H]1C[C@@H]2CNC(=O)c1ccco1` [CBK289100]: 86.6%.
The same measure, in the same setting: under `CN(C)c1ccc(-c2nccnc2NCC(O)COc2ccccc2)cc1` (centres unmarked) [CBK036928] stands 103%.
As for `CC(=O)C1=C(C)N2C(=Nc3ccccc3C2(C)C)S1` [CBK010180C], the viability at 28.5 h, 10 µM was found to be 85.5%.
Still for that read-out and setting: the same measure for `IC1COC(c2ccccc2)OC1` (centres unmarked) [CBK021109]: 110%; for `Cc1ccc(S(=O)(=O)N2CCC(OC(N)=O)CC2)cc1` [CBK003369]: 106%; for `O=C(Nc1cccc2ccccc12)c1ccc(CSCc2ccccc2)cc1` [CBK263759]: 105%.
The same measure, in the same setting: the same measure for `O=C(CSc1ncccc1C(=O)O)Nc1nnc(Cc2ccccc2)s1` [CBK299835]: 97.1%; for `Cn1ccnc1C1(O)CCN(C(=O)c2cc(F)cc(F)c2)CC1` [CBK283544]: 102%; for `Cc1ccc(OCc2ccccc2)c(Br)c1` [CBK002833]: 105%.
As for `COc1ccc2c(c1)CCN(C(=O)C1CCc3nn(C)c(=O)n3C1)C2` (centres unmarked) [CBK307613], the viability at 28.5 h, 10 µM was found to be 93.3%.
Same read-out and setting: the same measure for `COc1ccc(S(=O)(=O)N2CCOCC2)cc1C(=O)N1CCCC(C)C1` (centres unmarked) [CBK305011]: 110%.
As for `CC(Nc1ccc(N2CCOCC2)cc1)C(=O)Nc1cccc(C#N)c1` (centres unmarked) [CBK305846], the viability at 28.5 h, 10 µM worked out at 82.2%.
Still for that read-out and setting: the same measure for `O=C(NCc1ccccc1OC1CCNC1)c1ccccc1` (centres unmarked) [CBK028301T]: 114%.
Same read-out and setting: the same measure for `CCCCOc1ccc(-c2nonc2NC(=O)COc2ccccc2Cl)cc1` [CBK299792]: 117%; for `OC(COc1ccccc1)CN1CCN(Cc2ccccc2)CC1` (centres unmarked) [CBK074852C]: 93%; for `Cc1ccc(C)c(-c2nn(-c3ccccc3)cc2/C=C2\SC(=S)N(CC(=O)O)C2=O)c1` [CBK264541]: 98.4%.
Same read-out and setting: the same measure for `O=C(Cc1csc(-c2ccc(Cl)cc2)n1)N1CCN(c2ccccn2)CC1` [CBK107310]: 97%; for `COc1cccc(-c2cc(C(=O)NCCCN3CCOCC3)c3ccccc3n2)c1` [CBK262630]: 91.7%.
As for `O=C(CCN1CCOCC1)Nc1ccc(Br)cc1C(=O)c1ccccc1` [CBK263165], the viability at 28.5 h, 10 µM amounted to 93%.
Regarding `Cc1ccc(-c2cc(C(=O)NCc3ccc(-c4ccc(C(N)=O)c(C)n4)cc3)no2)cc1` [CBK285644], the viability at 28.5 h, 10 µM turned out to be 116%.
Same read-out and setting: under `O=C(CSc1ncnc2c1oc1ccccc12)Nc1ccccc1` [CBK057994] stands 93.4%.
Same read-out and setting: the same measure for `CCOC(=O)c1cnc(C(C)(C)C)nc1O` [CBK018470]: 88.6%; for `O=C(CSc1ccc(Cl)cc1)NNC(=O)c1cccc([N+](=O)[O-])c1` [CBK268384]: 93.5%.
The same measure, in the same setting: under `O=c1c(-c2cc(O)[nH]n2)c(O)c2ccccc2n1Cc1ccccc1` [CBK291160] stands 97.2%; under `CCOc1ccc(-c2csc(NC(=O)CC)n2)cc1` [CBK287764], 92.5%.
For the compound `NS(=O)(=O)c1ccc(CNC(=O)C(Sc2ccccc2)c2ccccc2)cc1` (centres unmarked) [CBK264355], the viability at 28.5 h, 10 µM is 91.5%.
On the same count and under the same terms, under `CC(CC(=O)N1CCC(c2cc3cccnc3[nH]2)CC1)n1cccn1` (centres unmarked) [CBK285036] stands 100%; under `CC1CNCCC1n1nc(-c2cccs2)ccc1=O` (centres unmarked) [CBK284221], 82.9%; under `COc1ccc(C(=O)Nc2ccccc2C(=O)N2CCOCC2)cc1Br` [CBK269923], 85.4%.
Regarding `O=C1CNC(=O)C2(C/C=C/C[C@H]3COCC[C@H]3N1)CCN(C(=O)Cc1cccnc1)CC2` [CBK292068], the viability at 28.5 h, 10 µM was 103%.
Still for that read-out and setting: under `O=c1oc2c(CN3CCN(CCO)CC3)c(O)ccc2cc1-c1nc(-c2ccc(Br)cc2)cs1` [CBK264949] stands 103%; under `COC[C@@H]1CCCN1S(=O)(=O)c1ccc(C(C)C)cc1` [CBK200045], 110%.
Still for that read-out and setting: the same measure for `O=C(O)CCc1nc2nc(-c3ccco3)cc(C(F)(F)F)n2n1` [CBK286889]: 86%; for `COc1ccc(-c2nnc3ccc(SCc4ccccn4)nn23)cc1OC` [CBK287528]: 97.4%; for `O=C(NCCn1nc2c(cc1=O)CCCCC2)c1ccccc1F` [CBK282300]: 89.3%.
For the compound `CN(C)CC(C)(C)CNC=C1C(=O)CC(C)(C)CC1=O` [CBK262046], the viability at 28.5 h, 10 µM worked out at 99.9%.
As for `Cc1cc(C)c(S(=O)(=O)N(CC(=O)O)C2CCCCC2)c(C)c1` [CBK266663], the viability at 28.5 h, 10 µM was 92.6%.
The same measure, in the same setting: under `CC1=NN(c2ccc([N+](=O)[O-])cc2)C(=O)/C1=C/NCc1ccc(S(N)(=O)=O)cc1` [CBK262670] stands 111%; under `CCNC(=O)c1cnc(-c2ccc(Cl)cc2)c(-c2cccnc2)c1` [CBK037584], 103%.
For the compound `COc1cccc(-c2ccc3c(c2)[nH]c(=O)n3C2CCN(C(=O)c3ccc(C)c(OC)c3)CC2)c1` [CBK153141], the viability at 28.5 h, 10 µM came to 102%.
With `Cc1ccc2nc(C)cc(C(=O)OCc3ccc(C(N)=O)cc3)c2c1` [CBK296676], the viability at 28.5 h, 10 µM turned out to be 97.8%.
Still for that read-out and setting: the same measure for `CCc1cc(CNC(=O)C2CC3C=CC2C32CC2)on1` (centres unmarked) [CBK282071]: 102%; for `Nc1ccc(C(=O)Oc2ccc(Oc3ccccc3)cc2)cc1` [CBK083570]: 90.5%.
On to `CC1CCCCN1CC(=O)N(C)C(C)COc1ccc(Cl)cc1` (centres unmarked) [CBK023201], for which the viability at 28.5 h, 10 µM is 87.8%.
Regarding `CCc1cc2cc3c(cc2nc1SCC(=O)Nc1nc(C)c(C)s1)OCO3` [CBK108548], the viability at 28.5 h, 10 µM was determined as 94.8%.
The same measure, in the same setting: the same measure for `O=C(NCC(F)(F)F)c1ccc(-c2ccccc2)nc1NCc1cccnc1` [CBK076551]: 95%; for `Cc1cc(N(C)Cc2ccccc2Br)nc(N)n1` [CBK297753]: 70.2%; for `O=C1NCCNC(=O)C2(CCCCOc3ccccc31)CCN(C(=O)c1ccnnc1)CC2` [CBK292105]: 107%.
On to `COc1cc2cc(CN(Cc3cccnc3)C(=O)Nc3ccc(F)cc3)c(=O)[nH]c2cc1OC` [CBK108193], for which the viability at 28.5 h, 10 µM came out at 93.3%.
Take `c1ccc(Nc2cncc(N3CCNCC3)n2)cc1` [CBK013389]: the viability at 28.5 h, 10 µM was determined as 100%.
Regarding `COc1ccc2[nH]cc(CCNC(=O)c3ccc(Cl)c(Cl)c3)c2c1` [CBK115870], the viability at 28.5 h, 10 µM is 107%.
Still for that read-out and setting: under `FC(F)(F)c1ccnc(SCCc2cnccn2)n1` [CBK105300] stands 88.6%; under `Cc1cc(C)n(CC(=O)N2CCNC(=O)C2c2ccccc2Cl)n1` (centres unmarked) [CBK306421], 92.6%; under `CCOc1c(CNCCN2CCOCC2)cccc1OC` [CBK278182C], 103%.
Same read-out and setting: under `Cc1ccc(Oc2cc(C)c([N+](=O)[O-])cn2)c(Br)c1` [CBK002823] stands 92.2%; under `O=C(NCc1cccs1)c1ccc2nc[nH]c2c1` [CBK153320], 92.1%.
On the same count and under the same terms, under `CC1(C)OC(NC2CC3CCC2C3)=NC1=O` (centres unmarked) [CBK092237] stands 82.8%; under `COc1ccccc1CN(C(=O)Nc1ccccc1Cl)C1CC1` [CBK298332], 97.2%.
With `COc1ccccc1CC(=O)NCc1nc(-c2cccc(C)c2)no1` [CBK269336], the viability at 28.5 h, 10 µM stood at 96.7%.
Take `O=C1NCCCC12CCN(Cc1cccc3ncccc13)CC2` [CBK285033]: the viability at 28.5 h, 10 µM was determined as 101%.
On the same count and under the same terms, under `O=C(NCCNCc1ccccc1)c1ccccc1` [CBK012505] stands 119%.
As for `COc1ccc(-c2cnn(-c3ccc(OC)cc3)n2)cc1` [CBK112745], the viability at 28.5 h, 10 µM came out at 106%.
Same read-out and setting: the same measure for `COC(=O)CCNc1nc(-c2ccc(Br)cc2)nc2ccccc12` [CBK263628]: 97.9%; for `Cc1onc(-c2ccccc2)c1CNC(=O)c1cccnc1` [CBK144100]: 111%; for `CC(=O)NC(Cc1c[nH]c2ccccc12)/C(C)=N/O` (centres unmarked) [CBK022711]: 120%.
The same measure, in the same setting: under `COc1ccccc1C1OC(=O)CC1C(=O)N1CCN(c2ccc(C(F)(F)F)cc2)CC1` (centres unmarked) [CBK091313] stands 111%.

Still in this data set, the particulars now being: human, hela cells, % viability, bulk resorufin, single well.
Take `COc1ccc(Cn2nc(C(=O)O)c3ccccc32)cc1OC` [CBK093529]: the viability at 28.5 h, 10 µM worked out at 93%.

The values are drawn from article PMC12040169 (PLOS Biology, 2025).
